Reference: patent US10293023B2, “Method of altering vascular permeability and uses thereof” (CHILDREN'S MEDICAL CENTER CORPORATION, priority 2013, dated 2019)

How the values were obtained:
LOX [1] = assay: LOX activity measured in blood samples (LOX activity assay kit); type: in vivo; details: treated mice vs control; BAPN 2 weeks, LOX siRNA 1 week
Description: LOX activity in the serum and lung homogenate was measured using LOX activity assay kit (ABD Bioquest, CA) in which LOX substrate that releases hydrogen peroxide was detected ^13,37,55. Hydroxyproline in lung tissue or serum was measured using Hydroxyproline assay kit (Biovision, Milpitas, Calif.)^27. The levels of IL-1 and TNF-α in the lung homogenate were measured by ELISA (R&D systems).

mouse lungs [2] = assay: Inflammatory cell count in BAL fluid (Wright-Giemsa stain); type: in vivo, mice; details: total inflammatory cell count
Description: BAL was performed by instilling 0.9% NaCl in two separate 0.5 ml aliquots. The fluid was recovered by gentle suction and placed on ice for immediate processing. An aliquot of the BAL fluid was processed immediately for differential cell counts performed on cytospin preparations stained with modified Wright-Giemsa stain (Diff-Quik; American Scientific Products, McGaw Park, Ill.).

lung cell = assay: Lung cell proliferation or apoptosis in vivo; parameters: species or system mice; details: data not shown
mouse lungs [3] = assay: In vivo pulmonary permeability assay (Evan's Blue dye leakage); parameters: species or system mice
Description: (§1) Mice (6-10 weeks old, CD1 strain, female) were treated with LPS (100 mg, intraperitoneally) and lung permeability was assessed 2 days after injection ^3. […] The lung permeability was measured using Evan's Blue dye or low MW fluorescently labeled dextran (MW 4000, sigma) leakage ^3. Evans blue dye was extracted from the lung by incubation with formamide (70° C. for 24 h) and the concentration of Evans blue was estimated by dual-wavelength spectrophotometer (620 nm and 740 nm). Mice were treated with BAPN (3 mg/kg, drinking water) for 14 days ^13. […] The inventors treated the mice with LPS for the last two days. For decellularization of lung, the inventors perfused the lung with decellularization buffer (0.5% SDS/PBS) for 1 h and cryosectioned it and analyzed by H&E staining and immunohistochemistry 25,26. […] For analysis of collagen structure, the inventors used picrosirius red staining ^30 and observed the structure using birefringence microscope (Abrio imaging system, CRI, MA)^30.

mouse lung tissues = assay: Lung stiffness (Young's modulus) by tensile loading assay; details: compared with controls (control IgG, control siRNA)
Description: Mice (6-10 weeks old, CD1 strain, female) were treated with LPS (100 mg, intraperitoneally) and lung permeability was assessed 2 days after injection ^3. […] Gene knockdown or overexpression in the lung (2 days later) was confirmed by measuring mRNA and/or protein levels using qRT-PCR and IB, respectively. […] Mice were treated with BAPN (3 mg/kg, drinking water) for 14 days ^13. The inventors also treated mice with LOX function-blocking polyclonal antibody (3 mg/kg)^13,36, LOX DNA or LOX siRNA (10 mg/mouse) injected intravenously (retro orbital injection) twice per week. The inventors treated the mice with LPS for the last two days.
The inventors trimmed and made cylindrical lung tissue sections using a sharp knife that included peripheral and central portions of the left lobe. The stiffness of mouse lung tissues was evaluated by determining Young's Modulus (E) under tensile loading ^31,32 (Mach-1; Biomomentum, Canada). Tissues were attached to the base and probe using polyacrylamide glue and stretched until complete breakage of the tissue. The Young's Modulus was derived from the slope of a standard stress-strain curve using data within the first 10% of the maximum strain.

mouse lungs [4] = assay: ECM and collagen structure of decellularized lung (H&E, immunofluorescence, picrosirius red birefringence); details: for collagen fiber alignment with alveolar septae: picrosirius red staining, birefringence microscopy
Description: as §1

mouse lungs [5] = assay: Endotoxin (LPS)-induced lung vascular permeability, Evan's Blue dye leakage; details: for increase of vascular permeability induced by LPS: treatment in combination with LPS for the last two days
Description: as §1

[6] = system: pulmonary endothelial cells; assay: Endothelial cell-cell junctional integrity in lung by TEM; type: in vivo, mice
Description: For transmission electron microscopy (TEM), small pieces (1-2 mm cubes) of lung tissue were fixed with 2.5% Glutaraldehyde and 2% Paraformaldehyde in 0.1 M sodium cacodylate buffer (pH 7.4) for at least 2 h at RT, washed in 0.1M cacodylate buffer and postfixed with 1% Osmiumtetroxide (OsO4)/1.5% Potassiumferrocyanide (KFeCN6) for 1 h, washed in water and incubated in 1% aqueous uranyl acetate for 1 h followed by washes in water and subsequent dehydration in grades of alcohol. The samples were then put in propyleneoxide for 1 hr and infiltrated ON in a 1:1 mixture of propyleneoxide and TAAB Epon (Marivac Canada Inc. St. Laurent, Canada). The samples were then embedded in TAAB Epon and polymerized at 60 C for 48 hrs. Ultrathin sections (about 60 nm) were cut on a Reichert Ultracut-S microtome, picked up on to copper grids stained with lead citrate and examined in a JEOL 1400 TEM microscope or a TecnaiG^2 Spirit BioTWIN.

LOX [7] = assay: LOX mRNA and protein expression in vivo (qRT-PCR, immunoblot); parameters: species or system mice
Description: Quantitative reverse transcription (qRT)-PCR was performed with the Quantitect SYBR Green RT-PCR kit (QIAGEN) using ABI 7300 real time PCR system (Applied Biosystems, Foster City, Calif.). Cyclophilin controlled for overall cDNA content. The primers used for mouse cyclophilin were forward; 5′-[…]-3′ (SEQ ID NO:4), reverse; 5′-[…]-3′(SEQ ID NO:5)^15. The primers for mouse LOX were forward; 5′-[…]-3′(SEQ ID NO:6), reverse; 5′-[…]-3′(SEQ ID NO:7).

Molecule | decrease in LOX activity measured in blood samples (LOX [1]) | increase of inflammatory cells in the bronchoalveolar lavage (BAL) fluid (mouse lungs [2]) | lung cell proliferation or apoptosis in vivo (lung cell) | lung vascular permeability: Evan's Blue dye leakage higher than in control non-treated lungs (mouse lungs [3]; BAPN treatment of healthy mice) | decrease of lung stiffness (Young's modulus) (mouse lung tissues) | disruption of collagen VI-positive ECM fibers by LPS (mouse lungs [4]; decellularized lungs, LPS in combination with BAPN) | fine collagen fibril / ECM structure in decellularized lung (mouse lungs [4]; immunofluorescence microscopy) | collagen fiber alignment with alveolar septae (mouse lungs [4]) | LPS-induced pulmonary edema in mice (mouse lungs [5]; mouse, in vivo) | increase of vascular permeability induced by LPS (mouse lungs [5]) | junctions between pulmonary endothelial cells [6] | suppression of vascular permeability induced by LPS treatment (mouse lungs [5]; Evans blue dye leakage, 8 mg/mouse/day, IP, two days) | LOX expression in the lung (LOX [7]; mRNA and/or protein) | LOX expression in other organs, such as the kidney (LOX [7]; not shown) | increase of lung vascular permeability (mouse lungs [3]; Evan's Blue dye leakage, compared to control-treated or untreated mice)
N#CCCN [BAPN, beta-aminopropionitrile] | 25% | approximately 2 fold | did not produce detectable changes | more than 60% | 40% | prevented this disruption | lost the fine network | more randomly distributed | inhibits | prevented | disrupted | – | – | – | –
CC(C)(S)[C@@H](N)C(=O)O [D-penicillamine] | – | – | – | – | – | – | – | – | – | – | – | 40% | – | – | –
LOX siRNA: siRNA for mouse LOX, 5′-CAACGGGCAGGUGUUCAG-3′ (SEQ ID NO:2) and 5′-CUGAACACCUGCCCGUUG-3′ (SEQ ID NO:3) (listed as RNA, chemistry not given here) | 60% | – | – | – | 30% | – | – | disrupted normal collagen fiber alignment | – | restored | – | – | specifically decreased | not in the kidney | 2.5 fold
